# Key:
# angiogenic response = test: In vitro pharmacology: angiogenic response; assay type: cell-based
# From the text: (§1) The pharmacological effects of 3-(3,4-dimethoxy-phenyl)-3-(1-oxo-1,3-dihydro-isoindol-2-yl)-propionamide derive from its action as an inhibitor of cellular response to receptor-initiated trophic signals (e.g., IGF-1, VEGF, cyclooxygenase-2), and other activities.
# AML cells = test: Mitogenic response to VEGF in AML cells; assay type: cell-based
# From the text: as §1
# [1] = test system: death-receptor initiated programmed cell death; test: In vitro pharmacology: death-receptor initiated programmed cell death; assay type: cell-based
# From the text: as §1
# [2] = test system: adhesion molecules and apoptosis inhibitory proteins (e.g., cFLIP, cIAP); test: In vitro pharmacology: adhesion molecules and apoptosis inhibitory proteins; assay type: cell-based
# From the text: as §1
# [3] = test system: MDS bone marrow progenitor; test: MDS vs normal bone marrow progenitor formation in pre-clinical models; assay type: cell-based
# From the text: as §1
# [4] = test system: production of various cytokines; test: In vitro studies of pharmacological activity profile and cytokine production; assay type: cell-based, human
# Protocol: The pharmacological properties of 3-(3,4-dimethoxy-phenyl)-3-(1-oxo-1,3-dihydro-isoindol-2-yl)-propionamide, including activity comparisons with thalidomide, are characterized in in vitro studies. Studies examine the effects of 3-(3,4-dimethoxy-phenyl)-3-(1-oxo-1,3-dihydro-isoindol-2-yl)-propionamide on the production of various cytokines. In addition, a safety pharmacology study of -(3,4-dimethoxy-phenyl)-3-(1-oxo-1,3-dihydro-isoindol-2-yl)-propionamide is conducted in dogs and the effects of the compound on ECG parameters are examined further as part of three repeat-dose toxicity studies in primates.
# Inhibition of TNF-α production following LPS-stimulation of human PBMC and human whole blood by 3-(3,4-dimethoxy-phenyl)-3-(1-oxo-1,3-dihydro-isoindol-2-yl)-propionamide is investigated in vitro (Muller et al., Bioorg. Med. Chem. Lett. 9:1625-1630, 1999). The IC50's of 3-(3,4-dimethoxy-phenyl)-3-(1-oxo-1,3-dihydro-isoindol-2-yl)-propionamide for inhibiting production of TNF-α following LPS-stimulation of PBMC and human whole blood is measured.
# as §1
# MDS patients = conditions: cited from earlier work
molecule,measurement,setting,value
"COc1ccc(C(CC(N)=O)N2Cc3ccccc3C2=O)cc1OC (stereo not drawn) [3-(3,4-dimethoxy-phenyl)-3-(1-oxo-1,3-dihydro-isoindol-2-yl)-propionamide]",angiogenic response,angiogenic response,suppresses angiogenic response
same,mitogenic response to VEGF,AML cells,abrogates mitogenic response to VEGF
same,ligand-induced Akt-phosphorylation,AML cells; VEGF,extinguishing ligant-induced Akt-phosphorylation
same,sensitivity to death-receptor initiated programmed cell death,[1],promotes sensitivity to death-receptor initiated programmed cell death
same,"adhesion molecules and apoptosis inhibitory proteins (e.g., cFLIP, cIAP)",[2],down-regulates adhesion molecules and apoptosis inhibitory proteins
same,MDS vs normal bone marrow progenitor formation,[3],selectively suppresses MDS vs normal bone marrow progenitor formation
same,generation of inflammatory cytokines,[4],suppresses the generation of inflammatory cytokines
"recombinant human EPO: erythropoietin (EPO), hematopoietic growth factor",patients with sustained improvement in hemoglobin or decrease in transfusion requirement,MDS patients,less than 25%
recombinant human GM-CSF: granulocyte macrophage colony stimulating factor (GM-CSF),granulocytopoiesis in treated patients,MDS patients,can restore granulocytopoiesis
same,improvement in hemoglobin or platelet counts,MDS patients,little or no improvement
"G-CSF: granulocyte colony stimulating factor (G-CSF) (protein, UniProt P09919 31-207, looked up) Granulocyte …: TPLGPASSLPQSFLLKCLEQVRKIQGDGAALQEKLVSECATYKLCHPEELVLLGHSLGIPWAPLSSCPSQALQLAGCLSQLHSGLFLYQGLLQALEGISPELGPTLDTLQLDVADFATTIWQQMEELGMAPALQPTQGAMPAFASAFQRRAGGVLVASHLQSFLEVSYRVLRHLAQP",granulocytopoiesis in treated patients,MDS patients,can restore granulocytopoiesis
same,improvement in hemoglobin or platelet counts,MDS patients,little or no improvement
